Values quoted from earlier work as cited in article PMC11328599, “Crystal structure of dihydroneopterin aldolase from Mycobacterium tuberculosis associated with 8-mercaptoguanine, and development of novel S8-functionalized analogues as inhibitors: Synthesis, enzyme inhibition, in vitro toxicity and antitubercular activity” (Journal of Enzyme Inhibition and Medicinal Chemistry, 2024).

Molecular target: T1, MtFolB (Mycobacterium tuberculosis, UniProt P9WNC5)
T1 construct: made in house
Design: method as in PMID 33752554
Details: previously reported; cited from earlier work

T1 sequence (P9WNC5 whole entry): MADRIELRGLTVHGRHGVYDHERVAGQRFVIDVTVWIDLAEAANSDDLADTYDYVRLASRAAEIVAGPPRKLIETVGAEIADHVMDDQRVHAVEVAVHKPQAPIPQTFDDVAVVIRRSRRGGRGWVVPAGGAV

## Nc1nc2nc(S)[nH]c2c(=O)[nH]1 [Compound 8-MG, 8-mercaptoguanine]
  Inhibition mode: non-competitive
